# Results: US20240124409A1, “GUAIANOLIDE SESQUITERPENE LACTONE DERIVATIVES AND PHARMACEUTICAL USE THEREOF” (NANJING UNIVERSITY OF CHINESE MEDICINE, priority 2021, published 2024)
# Marks after values point to notes of the source that are not given here.
# Columns and labels:
# [1] = Stability in artificial gastric juice environment (HPLC); details: 37° C.
# Description: The samples were dissolved in 500 μL of chromatographic methanol, into which were added 1500 μL of artificial gastric juice, mixed well and then dissolved completely by ultrasound. 50 μL of the above solutions were aspirated precisely, diluted by adding 200 μL of chromatographic methanol, filtered and analyzed by HPLC, wherein the HPLC analysis conditions were mobile phase: 65% methanol -35% water, flow rate: 0.8 mL/min, and column temperature: 25° C., and the initial peak areas were recorded. The above solutions were placed on a constant temperature water bath at 37° C., sampled at 8 h, 16 h and 24 h respectively, and analyzed by HPLC. By calculating the peak areas respectively, the stability data of the corresponding samples in artificial gastric juice environment at 8 h, 16 h and 24 h can be obtained.
# [2] = Solubility test in water; format: physicochemical; details: thermodynamic from solid; deionized water, 37° C.
# Description: Saturated solutions were formulated, filtered and analyzed by HPLC with a sample volume of 1 μL, 3 μL, 5 μL, 10 μL, 15 µL and 20 μL sequentially, and the standard curves of the corresponding compounds were drawn.
# […] of the above compounds were formulated, dissolved by ultrasound for 4 h, and placed on a water bath at 37° C. to stand for 1 h. The resulting unsaturated solutions were centrifuged. 30 μL of supernatants were removed, diluted by adding 200 μL of deionized water, and then filtered.
# [3] = test system: Hepa1-6 cells; experiment: Hepa1-6 subcutaneous mouse xenograft model; format: in vivo, C57BL/6 mice; details: 2 weeks
# Description: (§1) Hepa1-6 cells were cultured and amplified in vitro. Appropriate amount of the cells in logarithmic growth phase were resuspended in a suspension of a serum-free DMEM medium and Matrigel (1:1) to prepare a cell suspension in 2.5×10^6/100 μL under sterile conditions. 100 μL of the cell suspension was subcutaneously inoculated into the armpits of the front left limbs of C57BL/6 mice with a syringe. When the tumor volume grew to 100-200 mm^3, animals with moderate tumor size were randomly divided into groups, with 6 animals in each group. […] The mice were administered intragastrically every day for 2 weeks. During the administration, the weights and tumor diameters of the mice were measured every day. After the experiment, the mice were sacrificed by cervical dislocation, and the tumors were taken and weighed. The formula for calculating a tumor volume (TV) is: TV=½×a×b^2, where a represents the long diameter of a tumor; b represents the short diameter of a tumor.
# [4] = test system: CT26 cells; experiment: CT26 subcutaneous mouse xenograft model; format: in vivo, C57BL/6 mice; details: 3 weeks
# Description: CT26 cells were cultured and amplified in vitro. Appropriate amount of the cells in logarithmic growth phase were resuspended in a suspension of a serum-free RPMI 1640 medium and Matrigel (1:1) to prepare a cell suspension in 5×10^5/100 μL under sterile conditions. 100 μL of the cell suspension was subcutaneously inoculated into the armpits of the front left limbs of male C57BL/6 mice with a syringe. When the tumor volume grew to 50-70 mm^3, animals with moderate tumor size were randomly divided into groups, with 5 animals in each group. […] The mice were administered intragastrically every day for 3 weeks. During the administration, the weights and tumor diameters of the mice were measured every day. After the experiment, the mice were sacrificed by cervical dislocation, and the tumors were taken and weighed. The formula for calculating a tumor volume (TV) is: TV=½×a×b2, where a represents the long diameter of a tumor; b represents the short diameter of a tumor.
# [5] = test system: MDSCs and T cells; experiment: H22 xenograft model, flow cytometry of MDSCs and T cells in tumor and spleen; format: in vivo, BALB/c mice
# Description: as §1, with “H22” for “Hepa1-6”, “RPMI 1640” for “DMEM”, “3×105/100” for “2.5×10^6/100”, “BALB/c” for “C57BL/6”
# The tumor-bearing mice were sacrificed by the cervical dislocation method, placed in a beaker containing 75% alcohol, and the tumors of the mice were peeled off. The tumors were first soaked in a sterile petri dish containing RPMI 1640. After all the tumors were peeled off, fingernail sized tumor was cut off and transferred to a 1.5 mL EP tube. The tumors were cut into small pieces, and transferred into a 15 mL centrifuge tube containing 3-5 mL of digestive enzymes (Collagenase IV 1 mg/mL, Hyaluronidase 1 mg/mL, and DNase I 20 U/mL), and digested in a shaker at 200 rpm and 37° C. for 1 h. After digestion, the mixture was allowed to pass through a 200-mesh screen to obtain the suspension of the tumor cells. The resulting tumor suspension was centrifuged at 1600 rpm for 5 min. The supernatant was aspirated away. 1 mL of 1×PBS was added into each tube to resuspend the cells. The cell suspension was transferred into a 1.5 mL EP tube, and centrifuged at 1600 rpm for 5 min. The supernatant was removed. 100 μL of 1×PBS was used in each tube to resuspend the cells respectively. Then 1 μL of a viability dye was added. The mixture was incubated at room temperature in the dark for 15 min after being mixed well. At the same time, the spleen was taken out with a tweezer, placed into a sterile petri dish containing 5 mL of the RPMI 1640 medium, and positioned on a 200-mesh cell screen. The spleen was gently ground with the needle core of a 10 mL syringe. A small amount of the RPMI 1640 medium was aspirated to rinse the cell screen. The spleen cell suspension was rinsed into a 15 mL centrifuge tube, and centrifuged at 1600 rpm for 5 min to collect cells. The cells were washed once with 1×PBS. 3 mL of an erythrocyte lysate (diluted with ddH2O) was added to each tube to lyse for 5 min. After lysing, 10 mL of 1×PBS was added to each tube to stop lysing. The mixture was centrifuged at 1600 rpm for 5 min. 1 mL of 1×PBS was added to each 15 mL centrifuge tube. The mixture was transferred to a 1.5 mL EP tube, and centrifuged at 1600 rpm for 5 min. 1 mL of 1×PBS was added to each tube of the stained tumor cells and lysed spleen cells respectively to wash once. The mixture was centrifuged at 1600 rpm for 5 min, and the supernatant was removed. 100 μL of 1×PBS was used to resuspend the tumor cells and spleen cells respectively. 1 μL of the FcX™ antibody was then added to each tube. The mixture was incubated at room temperature in the dark for 10 min. After the incubation, 1 μL of each of the CD45, CD11b and Gr1 antibodies was added to each tube sequentially. The mixture was incubated at 4° C. in the dark for 30 min, and washed once with 1×PBS after the incubation. The supernatant was discarded. 300 μL of 1×PBS was used to resuspend the cells. The mixture was filtered through a filter membrane into a flow tube, and detected on a machine.
# [6] = test system: H22 cells; experiment: H22 subcutaneous mouse xenograft model, tumor growth; format: in vivo, BALB/c mice; details: 2 weeks
# Description: as §1, with “H22” for “Hepa1-6”, “RPMI 1640” for “DMEM”, “3×105/100” for “2.5×10^6/100”, “BALB/c” for “C57BL/6”
smiles,measurement,setting,value
C=C1C(=O)O[C@@H]2[C@@H]3[C@]4(CC[C@@]3(C)O)C[C@]4(C)CC[C@@H]12 [Compound 1],Non-degradation percentage at 8 h,[1],99.08%
same,Non-degradation percentage at 16 h,[1],98.76%
same,Non-degradation percentage at 24 h,[1],98.16%
same,solubility,[2],1140 µg/mL
CN(C)C[C@@H]1C(=O)O[C@H]2[C@H]1CC[C@@]1(C)C[C@]13CC[C@@](C)(O)[C@H]23 [Compound 23],Tumor growth inhibition,[3]; 8.43 mg/kg/d i.g.,96.78%***
same,Tumor weight,[3]; 8.43 mg/kg/d i.g.,0.03 g
same,Tumor growth inhibition,[4]; 16.86 mg/kg/d i.g.,43.36%
same,Tumor weight,[4]; 16.86 mg/kg/d i.g.,4.62 g
same,MDSCs in Spleen,[5]; 8.43 mg/kg/d,23.10%
same,MDSCs in tumor,[5]; 8.43 mg/kg/d,7.86%
same,T Cells in Spleen,[5]; 8.43 mg/kg/d,37.19%
same,T Cells in tumor,[5]; 8.43 mg/kg/d,29.44%
same,Tumor growth inhibition,[6]; 8.43 mg/kg/d i.g.,42.92%
same,Tumor weight,[6]; 8.43 mg/kg/d i.g.,4.88 g
"C=C1C(=O)O[C@@H]2[C@H]3C(C)=CC[C@@]34O[C@@]4(C)CC[C@@H]12 [arglabin, reference compound]",Tumor growth inhibition,[3]; 10 mg/kg/d i.g.,95.86%***
same,Tumor weight,[3]; 10 mg/kg/d i.g.,0.04 g
same,Non-degradation percentage at 8 h,[1],50.14%
same,Non-degradation percentage at 16 h,[1],48.70%
same,Non-degradation percentage at 24 h,[1],43.40%
same,Tumor growth inhibition,[4]; 20 mg/kg/d i.g.,34.94%
same,Tumor weight,[4]; 20 mg/kg/d i.g.,5.31 g
same,MDSCs in Spleen,[5]; 10 mg/kg/d,27.89%
same,MDSCs in tumor,[5]; 10 mg/kg/d,27.0%
same,T Cells in Spleen,[5]; 10 mg/kg/d,27.02%
same,T Cells in tumor,[5]; 10 mg/kg/d,17.72%
same,Tumor growth inhibition,[6]; 10 mg/kg/d i.g.,39.43%
same,Tumor weight,[6]; 10 mg/kg/d i.g.,5.18 g
